The results in this text go back to patent publication US20070135365A1, “Pharmaceutical composition for preventing or remedying cardiac hypertrophy and cardiovascular disease caused thereby” (priority 2003, published 2007).

Experiment [1] concerns PKD1. Nature of the experiment: Immunoprecipitation kinase assay with Syntide-2 on PKD1 from drug-treated NRC. The class given is cell-based, rat. Particulars: for phosphorylation activity of PKD1 (Syntide-2) relative to untreated NRC: NRC treated 20 minutes, 100 nM TPA, 100 μM NE (containing 2 μM propranol) or 20 nM LIF, n=9. As for the experimental part: The ability of PKD1 to phosphorylate Syntide-2 (APLARTLSVAGLPGKK), which is a selective substance for PKD1, can be used as an index to assess PKD1 activity (Valverde, A. M., et al., Proc. Natl. Acad. Sci. USA, 91, 1994, p. 8572-8576).
Concretely, immunoprecipitation kinase assays using Syntide-2 as a substrate were conducted on the following NRC samples: NRC samples with cardiac hypertrophy induced by treating for 20 minutes respectively with (1) 100 nM TPA, (2) 100 μM NE, and (3) 20 nM LIF, and NRC samples treated for 20 minutes respectively with (4) 400 nM GF109203X (PKC inhibitor), (5) 20 nM TPA+400 nM GF109203X, (6) 100 μM NE+400 nM GF109203X, and (7) 20 nM LIF+400 nM GF109203X. The phosphorylation activity of PKD1 present in the various NRC samples was measured. In addition, as a control, the phosphorylation activity of PKD1 present in NRC that was not treated with anything (untreated NRC) was described and measured in the same way.
NRC prepared by the same method as described in (1) of Experiment 1 was cultured over night (5% CO2 concentration, 37° C.) in DMEM without blood serum (manufactured by Nacalai Tesque). To the cultured cells, (1) 100 nM TPA, (2) 100 μM NE (containing 2 μM propranol), (3) 20 nM LIF, (4) 400 nM GF109203X (PKC inhibitor), (5) 20 nM TPA+400 nM GF109203X, (6) 100 μM NE+400 nM GF109203X, and (7) 20 nM LIF+400 nM GF109203X were added respectively, and treated for 20 minutes. The cells obtained were treated with Lysis buffer solution A, and incubated for 60 minutes on ice together with anti-fully active PKD1 polyclonal antibody. This was treated with protein G Sepharose 4B, and protein bound to the resin (Protein G Sepharose 4B bound PKD1-anti-PKD1 antibody complex) was recovered. The PKD1 immunoprecipitate was rinsed 1 time in Lysis buffer solution A, and further rinsed 2 times with Lysis buffer solution A not containing NaF.
The PKD1 was eluted from PKD1 immunoprecipitate obtained by incubating in Lysis buffer solution A not containing NaF together with 100 μL of 0.5 mg/mL immunizing peptide. The immunizing peptide is an antigen peptide used in order to immunize test animals to create anti-fully active PKD1 polyconal antibody. When incubating this peptide with protein G Sepharose 4B bound PKD1-anti-PKD1 antibody complex, the aforementioned antigen peptide and the anti-PKD1 antibody bond, and as a result, PKD1 can be freed and obtained.
The eluted PKD1 (10 μL) was incubated for 5 minutes at 30° C. together with assay mixed solution (15 μL Tris/MgCl2 (100 mM Tris, 100 mM MgCl2), 5 μL ATP (800 μM), 0.2 μL ^32γ-ATP, and 40 μg Syntide-2). Next, the PKD1 phosphorylation activity was measured by liquid scintillation counter (n=9).

The subject of experiment [2] is PKD1. Nature of the experiment: Western blotting of cytoplasm and cell membrane fractions of TPA-treated NRC. The note with it: 100 nM TPA, 20 minutes, versus untreated. The class given is cell-based, rat. As to the method: The NRC prepared above was moved to non-serum DMEM (manufactured by Nacalai Tesque), and cultured overnight (5% CO2 concentration, 37° C.). Then, TPA was added to the culture to make a final concentration of 100 nM, and incubated for 20 minutes. Next, the cardiomyocytes were recovered and rinsed in PBS, subjected to bacteriolysis by treating with Lysis buffer solution (having the same composition as Lysis buffer solution A except that the Triton X-100 was 0.1%), centrifuged (15000 rpm, approximately 10 minutes), and fractioned into supernatant (cytoplasm fraction) and precipitate. The precipitate was further dissolved in Lysis buffer solution A. This was lightly separated by centrifuge, and the supernatant obtained was taken as the cell membrane fraction. As a control, NRC that was not treated with TPA was subjected to bacteriolysis, and the cytoplasm and cell membrane fractions were separated in the same manner as above (untreated substance). […]
Next, anti-mouse or anti-rabbit IgG bound with horseradish derived peroxidase (manufactured by Amersham Pharmacia) was used as the second antibody reagent, so that it is possible to observe the blotting results with chemical luminescence on X-ray film.
On the technique in general: In western blotting, separated proteins are transferred to a membrane and probed.

For experiment [3], the system named is fully active PKD1 (phosphorylated PKD1). Nature of the experiment: Immunofluorescence: intracellular distribution of fully active PKD1 in drug-treated NRC. The format is cell-based, rat. The note with it: for full activation (phosphorylation) of PKD1 and movement to sarcomere Z-discs: 100 μM NE (containing 2 μM propranol), 100 μM AngII or 20 nM LIF. As for the experimental part:
(§1) NRC prepared by a method similar to the method as described in (1) of Experiment 1 was moved to a glass culture plate (35 mm diameter) coated with poly-L-lysine, and was cultured over night (5% CO2 concentration, 37° C.) in DMEM without blood serum (manufactured by Nacalai Tesque). TPA was added to this to make a final concentration of 20 nM, and this was cultured a further 18 hours (5% CO2 concentration, 37° C.) (approximately 1×10^3 cells). After culturing, the cells obtained were rinsed 2 times with PBS, fixed by treating with 4 w/v % paraformaldehide for 30 minutes at room temperature, treated by soaking in PBS containing 0.25 v/v % Triton X-100 for 30 minutes at 4° C., and then incubated in blocking buffer solution (PBS containing 3 w/v % BSA, 2 v/v % FBS, 1 v/v % normal goat blood serum, and 0.03 v/v % Triton X-100).
(§2) This was rinsed 2 times in PBS, moved into PBS containing 0.3 v/v % Cy3-labeled anti-mouse IgG antibody, and 0.3 v/v % Cy2-labeled anti-rabbit IgG antibody (second antibody) (both manufactured by Amersham Pharmacia), and incubated for 1 hour at room temperature. The fluorescent signals of the cells were observed by a confocal laser scanning microscope LSM5 Pascal (manufactured by Carl Zeiss Inc.). Untreated NRC (None), which was not treated with TPA, was labeled with antibodies in the same manner as a contrast, and the results of observing the cell luminescence signals by confocal laser microscope (LSM5 Pascal) are indicated in FIG. 3B.
(§3) Specifically, NRC prepared by the same method as described above in (1) of Experiment 1 was moved to a glass culture plate (35 mm diameter) coated with poly-L-lysin, and was cultured over night (5% CO2 concentration, 37° C.) in DMEM without blood serum (manufactured by Nacalai Tesque). Five samples of the culture cells in question were used and added respectively to (1) 100 μM (final concentration, same hereinafter) NE (containing 2 μM propranol), (2) 100 μM AngII, (3) 20 nM LIF, (4) 100 μM NE (containing 2 μM propranol)+400 nM GF109203X (concretely, treated for 30 minutes by adding GF109203X, and then NE was added), (5) 20 nM LIF+400 nM GF109203X (concretely, treated for 30 minutes by adding GF109203X, and then LIF was added), and these were cultured a further 38 hours (5% CO2 concentration, 37° C.) (approximately 1×10^3 cells).
(§4) After culturing, the cells were rinsed 2 times with PBS, fixed by treating with 4 w/v % paraformaldehide for 30 minutes at room temperature, treated by soaking in PBS containing 0.25 v/v % Triton X-100 for 30 minutes at 4° C., and then incubated in blocking buffer solution (PBS containing 3 w/v % BSA, 2 v/v % FBS, 1 v/v % normal goat blood serum, and 0.03 v/v % Triton X-100). […] This was rinsed 2 times in PBS, moved into PBS containing 0.3 v/v % Cy3-labeled anti-mouse IgG antibody, and 0.3 v/v % Cy2-labeled anti-rabbit IgG antibody (second antibody) (both manufactured by Amersham Pharmacia), and incubated for 1 hour at room temperature. The fluorescent signals of the cells were observed by a confocal laser scanning microscope LSM5 Pascal (manufactured by Carl Zeiss Ltd.).

For experiment [4], the system named is neonatal rat cardiomyocytes (NRC). Kind of experiment: Immunofluorescence of α-actinin: sarcomere structures (cardiac hypertrophy state) in drug-treated NRC. The class given is cell-based. As to the method: as §1, §2, §3, §4
Experiment [5] concerns fully active PKD1 (phosphorylated PKD1). Nature of the experiment: Immunofluorescence: intracellular distribution of fully active PKD1 in drug-treated NRC. The class given is cell-based, rat. Particulars: cardiomyocytes in which EGF was allowed to act.
The next experiment deals with PKCε and PKD1. Nature of the experiment: Immunoprecipitation assay and Western blotting for interaction of PKCε and PKD1 in NE-treated NRC. The format is cell-based, rat. Particulars: 100 μM NE (containing 2 μM propranol), versus NRC not treated with NE. As for the experimental part: Primary NRC in culture prepared according to the method described in Experiment 1 (1) was treated with 100 μM NE (containing 2 μM propranol) in the same manner as in Experiment 3; the NE treated NRC in question was treated with Lysis buffer solution A; and 1 mL of cell extract (cell lysate) was obtained. […] of the cell extract was incubated for 60 minutes on ice together with anti-PKD1/2 monoclonal antibody; and this was then treated with protein G Sepharose 4B, and protein bound to the resin in question (anti-PKD1 antibody immunoprecipitate sample) was recovered. As indicated in experiment 1, no PKD2 was present in the NRC. Using anti-PKDε monoclonal antibody made in the same manner, anti-PKDε antibody immunoprecipitate sample was collected. As a control, 1 mL cell extract (cell lysate) of untreated NRC was obtained in the same way, and anti-PKDε antibody immunoprecipitate sample and anti-PKD1 antibody immunoprecipitate sample were prepared.
Next, Western blotting was conducted on the anti-PKCε antibody immunoprecipitate samples and the cell extract (cell lysate) obtained for the various NRC by using anti-PKD1/2 monoclonal antibody as the first antibody, and anti-mouse or anti-rabbit IgG bound with horseradish derived peroxidase (manufactured by Amersham Pharmacia) as the second antibody. […]

Setting [6] is: 38 hours, 100 μM NE (containing 2 μM propranol), 100 μM AngII or 20 nM LIF.
The mark [7] stands for this setting: 400 nM GF109203X for 30 minutes, then 100 μM NE (containing 2 μM propranol), 38 hours.

Take `CCCCCCCCCCCCCC(=O)O[C@@H]1[C@@H](C)[C@@]2(O)[C@@H](C=C(CO)C[C@]3(O)C(=O)C(C)=C[C@@H]23)[C@H]2C(C)(C)[C@]12OC(C)=O` [TPA, 12-0-tetradecanoylphorbol 13-acetate]: the “phosphorylation activity of PKD1 (Syntide-2) relative to untreated NRC” value in the experiment with PKD1 [1] is “notably higher phosphorylation activity”. In the experiment with PKD1 [2], the “fully active PKD1 (phosphorylated PKD1) in cytoplasm and membrane fractions” value is “present in large amounts in the membrane fraction”. In addition, the “activation of PKD1 and localization of fully active PKD1” value in experiment [3] (20 nM TPA, 18 hours) is reported as “the fully activated PKD1 moves to the sarcomere Z-disc region”. In addition, the “induction of cardiac hypertrophy (formation of sarcomere structures, visualization of Z-discs)” value (from here on “induction of cardiac hypertrophy”) in experiment [4] (20 nM TPA, 18 hours) is “cardiac hypertrophy was induced”.

With “Angiotensin II (DRVYIHPF; Angiotensin-2; UniProt P01019 25-32, looked up) [AngII, cardiac hypertrophy inducer]”, the “full activation (phosphorylation) of PKD1 and movement to sarcomere Z-discs” value (from here on “full activation (phosphorylation)”) in experiment [3] (38 hours) is recorded as “PKD1 was fully activated (phosphorylated)”. In experiment [4] (setting [6]), the “induction of cardiac hypertrophy” value is recorded as “induced cardiac hypertrophy”.

For the compound `CN(C)CCCn1cc(C2=C(c3c[nH]c4ccccc34)C(=O)NC2=O)c2ccccc21` [GF109203X], the “intrinsic PKD1 activity with TPA plus PKC inhibitor” value in the experiment on PKD1 [1] (NRC, 20 minutes, 20 nM TPA+400 nM GF109203X) is “suppressed to the same level as that of the negative control”. Besides, the “intrinsic PKD1 activity with NE plus PKC inhibitor” value in the experiment with PKD1 [1] (NRC, 20 minutes, 100 μM NE+400 nM GF109203X) is reported as “suppressed to the same level as that of the negative control”. Further, in experiment [3] (setting [7]), the “effect on NE-induced full activation of PKD1 and movement to sarcomere Z-discs” value is “no fully activated PKD1 (phosphorylation) and no movement to sarcomere Z-discs were observed”. Also, the “effect on LIF-induced cardiac hypertrophy” value in experiment [4] (400 nM GF109203X for 30 minutes, then 20 nM LIF, 38 hours) is reported as “a cardiac hypertrophy state was revealed”. In experiment [4] (setting [7]), the “effect on NE-induced cardiac hypertrophy” value is given as “no cardiac hypertrophy is generated”.

Regarding Epidermal growth factor [EGF], in experiment [5], the “full activation of PKD1 and movement to sarcomere Z-discs” value was “also observed”.

In the case of Leukemia inhibitory factor [LIF], the “phosphorylation activity of PKD1 (Syntide-2) relative to untreated NRC” value in the experiment on PKD1 [1] is reported as “hardly different from that of untreated NRC”. Moreover, in experiment [3] (38 hours), the “full activation (phosphorylation)” value is “no full activation (phosphorylation) of PKD1 and no movement of PKD1 to the vicinity of the sarcomere Z-discs”. The “induction of cardiac hypertrophy” value in experiment [4] (setting [6]) is on record as “inducing cardiac hypertrophy”.

For the compound `NC[C@H](O)c1ccc(O)c(O)c1` [NE, Norepinephrine], the “phosphorylation activity of PKD1 (Syntide-2) relative to untreated NRC” value in the experiment on PKD1 [1] is reported as “notably higher phosphorylation activity”. The “full activation (phosphorylation)” value in experiment [3] (38 hours) is listed as “PKD1 was fully activated (phosphorylated)”. In addition, in experiment [4] (setting [6]), the “induction of cardiac hypertrophy” value is given as “induced cardiac hypertrophy”. Further, in the experiment on PKCε and PKD1, the “formation of complex of PKCε and PKD1” value was “complex of PKCε and PKD1 were formed”.
